# Experimental data taken from US20070218456A1, “CELLULAR ASSAYS FOR SIGNALING RECEPTORS” (INVITROGEN CORPORATION, priority 2006, published 2007).
# What was measured:
# [1] = system: adenylyl cyclase; test: FACS forskolin response of T-REx-GPR23-CRE-bla-CHO-K1 pools; assay type: cell-based, Chinese hamster
# Excerpt: (§1) The transfected and antibiotic selected T-REx™-CRE-bla-CHO-K1 and T-REx™-GPR23-CRE-bla-CHO-K1 clones were sorted for their responsiveness to forskolin. Forskolin activates adenylyl cyclase and results in increased intracellular cAMP concentrations which in turn lead to increased production of beta-lactamase from the CRE response element. Forskolin response of the T-REx™-CRE-bla-CHO-K1 and T-REx™-GPR23-CRE-bla-CHO-K1 pools were determine using FACS. […] In addition, there was an increase in the constitutively active cells in the human GPR23 containing cells as compared to the parental as indicated by the un-stimulated blue levels. The responsive clones were collected at one cell per well in 96 well tissue culture plates then expanded and tested for there responsiveness to LPA.
# [2] = system: adenylyl cyclase; test: FACS forskolin response of T-REx-CRE-bla-CHO-K1 pool; assay type: cell-based, Chinese hamster; conditions: T-REx-CRE-bla-CHO-K1 selected pool
# Excerpt: as §1
# [3] = system: T-REx™-G2A-NFAT-bla Freestyle™293F cells; test: T-REx G2A NFAT-bla Freestyle 293F beta-lactamase reporter assay (inducer dose response)
# Procedure: (§2) In order to control the levels of G2A expression, G2A was placed under the control of an inducible promoter using Invitrogen's T-REx™ system. To again assess feasibility, pcDNA 5 G2A/TO was transiently transfected into CRE-bla Freestyle™ and NFAT-bla Freestyle™ cell lines stably expressing the T-REx™ Tet repressor plasmid (pcDNA6/TR; e.g., catalog# V1025-20, Invitrogen, Carlsbad, Calif.). The transfected cells were then treated with 10 ug/mL, 1 ug/mL, or 100 ng/mL tetracycline for 24 h to induce G2A expression. […] Stable pools of cells were created in both the TR CRE-bla and TR NFAT-bla Freestyle™293F backgrounds.
# (§3) Stimulation Kinetics—Selected pools of both CRE-bla and NFAT-bla T-REx™ G2A Freestyle™ cells were stimulated with tetracycline for 3, 4, 5, or 24 h and loaded for 2 h with 1 μM LiveBLAzer™-FRET B/G substrate.
# To improve the balance between tetracycline-induced signaling and cell death by testing shorter induction times, lower tetracycline concentrations and altered culture conditions were utilized to promote cell health. A 16 h tetracycline stimulation time was attempted on the pools from the first sort. Cells were plated at 10,000 cells/well 24 hours prior to assay in DMEM+10% dFBS and incubated at 37° C./5% CO2 until time of assay. The cells were stimulated for 16 hours (e.g., overnight) with a dilution series of the tetracycline. Following stimulation, the cells were loaded for 2 hours at room temperature in the dark with LiveBLAzer™-FRET B/G loading solution containing 1 μM substrate. This assay was done in Poly-D-Lysine coated plates.
# Since G2A has no known agonists, doxycycline and tetracycline were compared as inducers of the assay. An antibiotic selected pool of cells were plated at 10,000 cells/well 24 hours prior to assay in DMEM+10% dFBS and incubated at 37° C./5% CO2 until time of assay. The cells were stimulated with a dilution series of each compound for 16 hours at 37° C./5% CO2 and loaded for 2 hours at room temperature in the dark with LiveBLAzer™-FRET B/G loading solution containing 1 μM substrate.
# Cell Density/well—The influence of cell-plating density on assay performance was tested to find the density giving the best response and Z′ while maintaining the expected pharmacology. Cells were plated 24 hours prior to the assay at the densities indicated in FIG. 14 in DMEM+10% dFBS and incubated at 37° C./5% CO2 until the time of assay. The cells were stimulated for 16 hours at 37° C./5% CO2 with a dilution series of the doxycycline. After incubation, the cells were loaded for 2 hours at room temperature in the dark with LiveBLAzer™-FRET B/G loading solution containing 1 μM substrate.
# DMSO Tolerance—Tests were performed related to assay performance as a function of DMSO concentration to determine the robustness of the assay to the range of DMSO challenge routinely encountered during high-throughput screening. Dose response curves were performed in the presence of 0%, 0.25%, 0.5%, or 1% DMSO. Cells were plated at 10,000 cells/well 24 hours prior to assay in DMEM+10% dFBS and incubated at 37° C./5% CO2 until time of assay. After incubation, DMSO was added to the wells to final concentrations of 0%, 0.25%, 0.5% and 1% DMSO. The cells were stimulated for 16 hours with a dilution series of the doxycycline. Following stimulation, the cells were loaded for 2 hours at room temperature in the dark with LiveBLAzer™-FRET B/G loading solution containing 1 μM substrate.
# The substrate loading times were varied to find the time for an optimal assay performance. Cells were plated at 10,000 cells/well 24 hours prior to assay in DMEM+10% dFBS and incubated at 37° C./5% CO2 until time of assay. After incubation, DMSO was added to the wells to final concentration of 0.5%.
# [4] = system: T-REx™-GPR23-CRE-bla-CHO-K1 clone H6-E2; test: T-REx-GPR23-CRE-bla-CHO-K1 clone H6-E2 beta-lactamase reporter assay (induction); assay type: cell-based, Chinese hamster; conditions: Clone H6-E2; 1 μg/ml tetracycline, 16 hrs
# Procedure: Six clones selected for further testing were expanded and retested for their inducible GPR23 specific activity. The clones were plated at 25,000 cells per well in a 96 well black walled clear bottom tissue culture assay plate. The plates were than placed at 37° C. 5% CO2 for 24 hrs to allow the cells to attach to the assay plate. The complete media was then removed from the plate and replaced with assay media (DMEM+0.1% BSA) containing 100 ng/ml pertussis toxin with or without 1 μg/ml tetracycline. The plates were placed at 37° C. 5% CO2 for 16 hrs to allow the induced expression of the GPR23 receptor. The cells were then loaded with LiveBLAzer™-FRET B/G substrate (2 μM) containing solution D for 2 hrs. To determine the optimal cell density for this assay the cells were plated at 2,500, 5,000, 10,000, and 20,000 cells per well in a 384 well black walled clear bottom tissue culture assay plate in complete media (DMEM+10% FBS). The plates were than placed at 37° C. 5% CO2 for 24 hrs to allow the cells to attach to the assay plate. The complete media was then removed from the plate and replaced with assay media (DMEM+0.1% BSA) containing 100 ng/ml pertussis toxin and a four fold dilution series of doxycycline starting at 1 μg/ml. The plates were placed at 37° C./5% CO2 for 16 hrs to allow the induced expression of the GPR23 receptor. The cells were then loaded with LiveBLAzer™-FRET B/G substrate (2 μM) containing solution D for 2 hrs. The cells were plated at 20,000 cells per well in a 384 well black walled clear bottom tissue culture assay plate in complete media (DMEM+10% FBS). The plates were then placed at 37° C. 5% CO2 for 6 hrs to allow the cells to attach to the assay plate. The complete media was then removed from the plate and replaced with assay media (DMEM+0.1% BSA) containing 100 ng/ml pertussis toxin, 0%, 0.25%, 0.5%, or 1.0% DMSO, and a three fold dilution series of doxycycline starting at 1 μg/ml. The plates were placed at 37° C./5% CO2 for 16 hrs to allow the induced expression of the GPR23 receptor. The cells were then loaded with LiveBLAzer™-FRET B/G substrate (2 μM) containing solution D for 2 hrs. The cells were plated at 20,000 cells per well in a 384 well black walled clear bottom tissue culture assay plate in complete media (DMEM+10% FBS). The plates were than placed at 37° C. 5% CO2 for 6 hrs to allow the cells to attach to the assay plate. The complete media was then removed from the plate and replaced with assay media (DMEM+0.1% BSA) containing 100 ng/ml pertussis toxin, 0.5% DMSO, and a three fold dilution series of doxycycline starting at 1 μg/ml. The plates were placed at 37° C. 5% CO2 for 16, 20 or 24 hrs to allow the induced expression of the GPR23 receptor. The cells were then loaded with LiveBLAzer™-FRET B/G substrate (2 μM) containing solution D for 2 hrs. Dose response of T-REx-GPR23-CRE-bla CHO-K1 cells to Doxycycline. T-REx-GPR23-CRE-bla CHO-K1 cells were plated in Growth Media (+) and allowed to attach to the tissue culture plate for 6 hrs. They were then induced for GPR23 expression overnight with doxycycline for 16 hrs in Assay Media. Cells were then loaded with LiveBLAzer™-FRET B/G Substrate (CCF4-AM) for 2 hours. Fluorescence emission values at 460 nm and 530 nm were obtained using a standard florescence plate reader and the Blue/Green Emission Ratios were plotted against the indicated concentrations of doxycycline (FIG. 40).
# [5] = system: T-REx™ G2A CRE-bla Freestyle™ 293F cells; conditions: selected pool; 24 h tetracycline stimulation
# Procedure: as §2, §3
Structure (SMILES),"increase in the ""Blue"" gate, stimulated verses un-stimulated ([1]; T-REx-GPR23-CRE-bla-CHO-K1 E1) [%]","increase in the ""Blue"" gate, stimulated verses un-stimulated ([1]; T-REx-GPR23-CRE-bla-CHO-K1 H6) [%]","increase in the percentage of cells in the ""Blue"" (responding) gate, stimulated verses un-stimulated [2] [%]","EC50 ([3]; Homo sapiens, FreeStyle 293-F, antibiotic selected pool, 10,000 cells/well, 16 h stimulation, 2 h loading) [µg/mL]","RR (Max) ([3]; antibiotic selected pool, 10,000 cells/well, 16 h stimulation)","cell death ([3]; selected pool, 24 h tetracycline stimulation)",inducible response (induced versus uninduced) [4],cell death [5]
C=C[C@@]1(C)CC(=O)[C@]2(O)[C@@]3(C)[C@@H](O)CCC(C)(C)[C@@H]3[C@H](O)[C@H](OC(C)=O)[C@@]2(C)O1 [Forskolin],~20,~21.1,~10.7,,,,,
CN(C)[C@@H]1C(O)=C(C(N)=O)C(=O)[C@@]2(O)C(O)=C3C(=O)c4c(O)cccc4[C@@](C)(O)[C@H]3C[C@@H]12 [Tetracycline],,,,0.046,3.1,substantial cell death,about 9.2 fold,substantial cell death
